Measured values: patent US10519154B2, “7-substituted 1-pyridyl-naphthyridine-3-carboxylic acid amides and use thereof” (Bayer Pharma Aktiengesellschaft, priority 2016, dated 2019)

What was measured:
human M2 receptor [1] = biological target: T1, human M2 receptor (Homo sapiens, UniProt P08172); assay: Functional M2-GIRK1/4 activation test: allosteric potency (EC50) and efficiency; settings: for EC50: Receptor activity EC50, CHO-DUKX-M2-GIRK cells, acetylcholine at EC20, in some cases mean of two or more determinations; for Emax: read-out: Efficiency, boosting of the acetylcholine effect at EC20 acetylcholine concentration; for Emax / Efficiency: CHO-DUKX-M2-GIRK cells; for Efficiency: boosting of the acetylcholine effect at EC20 acetylcholine concentration
T1 sequence (P08172 1-466): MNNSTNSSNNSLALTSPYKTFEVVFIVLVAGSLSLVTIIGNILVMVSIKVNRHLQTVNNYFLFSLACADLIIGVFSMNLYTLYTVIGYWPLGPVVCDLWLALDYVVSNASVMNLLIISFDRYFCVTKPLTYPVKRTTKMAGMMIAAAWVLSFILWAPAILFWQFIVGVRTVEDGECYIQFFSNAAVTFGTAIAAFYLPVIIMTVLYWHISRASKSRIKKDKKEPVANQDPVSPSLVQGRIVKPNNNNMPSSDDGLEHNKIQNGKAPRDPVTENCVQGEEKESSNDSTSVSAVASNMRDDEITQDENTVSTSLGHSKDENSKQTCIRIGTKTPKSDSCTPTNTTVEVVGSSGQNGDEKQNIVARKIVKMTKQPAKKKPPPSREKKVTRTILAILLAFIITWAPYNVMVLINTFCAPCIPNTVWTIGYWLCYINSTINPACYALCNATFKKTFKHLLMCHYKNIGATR

human M2 receptor [2] = biological target: T1, human M2 receptor; assay: Functional M2-GIRK1/4 activation test: positive cooperativity (alpha factor); settings: shift of acetylcholine dose-response curve (Allosteric EC50 shift); CHO-DUKX-M2-GIRK cells
Description: The binding of orthosteric agonists (endogenous ligand: acetylcholine) to the M2 receptor leads to receptor activation or a change in conformation of the receptor in the manner of a shift in equilibrium in favor of the active receptor conformation.
The agonist-induced change in conformation of the M2 receptor results in a Gαi protein activation. […] Under physiological conditions, the result is then a selective efflux of potassium from the cell along the electrochemical gradient. […] The extent of hyperpolarization can therefore be regarded as a measure of the activation of the M2 receptor.
The test cell used is a recombinant CHO-DUKX cell line which has been stably transfected with cDNA coding for the human M2 receptor and with cDNA coding for both GIRK1/4 subunits (CHO-DUKX-M2-GIRK). The transmembrane potential, or the relative changes in the transmembrane potential as a function of substance addition or M2 activation, is determined by means of a voltage-sensitive dye (FLIPR Membrane Potential Assay Kit Blue, Molecular Devices #R8034) and the measurement of cell fluorescence using a proprietary fluorescence imaging instrument.
In accordance with the desired test concentrations, the substances were pre-diluted in loading buffer (see above).
The sowing medium consisted of MEM alpha medium (supplemented with 5% FCS, 2% Glutamax, no genticin).
For the particular measurement, the medium was removed and the cells were laden with the voltage-sensitive dye for at least 6 min at room temperature (30 μl of loading buffer per 384-well). This was followed, in a first measurement, by the determination of the resting transmembrane potential for a period of 5 sec in 1 sec increments. Thereafter, 10 μl in each case of the test substances diluted in loading buffer are added, followed by a second measurement to determine the transmembrane potential for a period of 50 sec in 1 sec increments.
Finally, the cells are admixed with 10 μl of agonist solution (acetylcholine dissolved in loading buffer). In contrast to the EC50 determination of the test substances (see B-1.1), however, this is not done using one acetylcholine concentration; instead, every concentration of the test substance is combined with an acetylcholine 8-point dose-response curve. […] The M2-mediated GIRK1/4 activation or hyperpolarization is then monitored in a third measurement over a period of 60 sec in 1 sec increments. The shift in the acetylcholine dose-response curve in the presence of increasing concentrations of the test substance is analyzed and quantified by means of GraphPad PRISM (Allosteric EC50 shift). […] Positive cooperativity is the hallmark of a positive allosteric modulator. […] The greater the magnitude of the cc value, the greater the extent of cooperativity between orthosteric and allosteric.

Compound: O=C(NC(c1ccccc1Cl)C(F)(F)F)c1cn(-c2ncc(F)cc2F)c2nc(N3C[C@@H](O)[C@H](O)C3)ccc2c1=O (single isomer, unassigned) [Example 84]
- EC50 (human M2 receptor [1]): 20 nM
- Emax (human M2 receptor [1]): 100%
- Cooperativity (alpha factor) (human M2 receptor [2]): 57

Compound: CC(C)(C)[C@@H](NC(=O)c1cn(-c2ncc(F)cc2F)c2nc(N3C[C@@H](O)CC3=O)ccc2c1=O)C(F)(F)F [Example 73, 1-(3,5-Difluoropyridin-2-yl)-7-[(4S)-4-hydroxy-2-oxopyrrolidin-1-yl]-4-oxo-N-[(2R)-1,1,1-trifluoro-3,3-dimethylbutan-2-yl]-1,4-dihydro-1,8-naphthyridine-3-carboxamide]
- EC50 (human M2 receptor [1]): 10 nM
- Emax (human M2 receptor [1]): 100%
- Cooperativity (alpha factor) (human M2 receptor [2]): 68

Compound: CC(NC(=O)c1cn(-c2ncc(F)cc2F)c2nc(N3C[C@@H](O)[C@H](O)C3)ccc2c1=O)C(F)(F)C(F)(F)F (single isomer, unassigned) [Example 90]
- EC50 (human M2 receptor [1]): 24 nM
- Efficiency (human M2 receptor [1]): 100.00%
- Cooperativity (alpha factor) (human M2 receptor [2]): 41

Compound: CCC(NC(=O)c1cn(-c2ncc(F)cc2F)c2nc(N3C[C@@H](O)CC3=O)ccc2c1=O)C(F)(F)C(F)(F)F (single isomer, unassigned) [Example 93]
- EC50 (human M2 receptor [1]): 14 nM
- Emax (human M2 receptor [1]): 98%
- Cooperativity (alpha factor) (human M2 receptor [2]): 41

Compound: O=C(N[C@@H](C1CC1)C(F)(F)F)c1cn(-c2ncc(F)cc2F)c2nc(N3C[C@@H](O)CC3=O)ccc2c1=O [Example 14, N-[(1S)-1-Cyclopropyl-2,2,2-trifluoroethyl]-1-(3,5-difluoropyridin-2-yl)-7-[(4S)-4-hydroxy-2-oxopyrrolidin-1-yl]-4-oxo-1,4-dihydro-1,8-naphthyridine-3-carboxamide]
- EC50 (human M2 receptor [1]): 87 nM
- Emax (human M2 receptor [1]): 98.5%
- Cooperativity (alpha factor) (human M2 receptor [2]): 50

Compound: CC(C)(C)[C@H](NC(=O)c1cn(-c2ncc(F)cc2F)c2nc(N3C[C@@H](O)CC3=O)ccc2c1=O)C(F)(F)F [Example 98, 1-(3,5-Difluoropyridin-2-yl)-7-[(4S)-4-hydroxy-2-oxopyrrolidin-1-yl]-4-oxo-N-[(2S)-1,1,1-trifluoro-3,3-dimethylbutan-2-yl]-1,4-dihydro-1,8-naphthyridine-3-carboxamide]
- EC50 (human M2 receptor [1]): 23 nM
- Emax (human M2 receptor [1]): 100%
- Cooperativity (alpha factor) (human M2 receptor [2]): 56

Compound: CC1CC(=O)N(c2ccc3c(=O)c(C(=O)N[C@H](C4CC4)C(F)(F)F)cn(-c4ncc(F)cc4F)c3n2)C1 (single isomer, unassigned) [Example 28]
- EC50 (human M2 receptor [1]): 19 nM
- Emax (human M2 receptor [1]): 100%
- Cooperativity (alpha factor) (human M2 receptor [2]): 17

Compound: O=C(NC(C(F)(F)F)C(F)(F)F)c1cn(-c2ncc(F)cc2F)c2nc(N3C[C@@H](O)[C@H](O)C3)ccc2c1=O [Example 56, 1-(3,5-Difluoropyridin-2-yl)-7-[(3R,4R)-3,4-dihydroxypyrrolidin-1-yl]-N-(1,1,1,3,3,3-hexafluoropropan-2-yl)-4-oxo-1,4-dihydro-1,8-naphthyridine-3-carboxamide]
- EC50 (human M2 receptor [1]): 34 nM
- Emax (human M2 receptor [1]): 100%
- Cooperativity (alpha factor) (human M2 receptor [2]): 68

Compound: O=C(NC(C(F)(F)F)C(F)(F)F)c1cn(-c2ncc(F)cc2F)c2nc(N3C[C@@H](O)[C@@H](O)C3)ccc2c1=O [Example 55, 1-(3,5-Difluoropyridin-2-yl)-7-[(3R,4S)-3,4-dihydroxypyrrolidin-1-yl]-N-(1,1,1,3,3,3-hexafluoropropan-2-yl)-4-oxo-1,4-dihydro-1,8-naphthyridine-3-carboxamide]
- EC50 (human M2 receptor [1]): 110 nM
- Emax (human M2 receptor [1]): 100%
- Cooperativity (alpha factor) (human M2 receptor [2]): 79

Compound: O=C(NC(C(F)(F)F)C(F)(F)F)c1cn(-c2ncc(F)cc2F)c2nc(N3C[C@@H](O)CC3=O)ccc2c1=O [Example 15, 1-(3,5-Difluoropyridin-2-yl)-N-(1,1,1,3,3,3-hexafluoropropan-2-yl)-7-[(4S)-4-hydroxy-2-oxopyrrolidin-1-yl]-4-oxo-1,4-dihydro-1,8-naphthyridine-3-carboxamide]
- EC50 (human M2 receptor [1]): 43 nM
- Emax (human M2 receptor [1]): 96.2%
- Cooperativity (alpha factor) (human M2 receptor [2]): 63

Compound: O=C(Nc1c(Cl)cccc1Cl)c1cn(-c2ncc(F)cc2F)c2nc(N3C[C@@H](O)CC3=O)ccc2c1=O [Example 16, N-(2,6-Dichlorophenyl)-1-(3,5-difluoropyridin-2-yl)-7-[(4S)-4-hydroxy-2-oxopyrrolidin-1-yl]-4-oxo-1,4-dihydro-1,8-naphthyridine-3-carboxamide]
- EC50 (human M2 receptor [1]): 48 nM
- Emax (human M2 receptor [1]): 99%
- Cooperativity (alpha factor) (human M2 receptor [2]): 40

Compound: CCC(NC(=O)c1cn(-c2ncc(F)cc2F)c2nc(N3CCNC3=O)ccc2c1=O)C(F)(F)C(F)(F)F (single isomer, unassigned) [Example 165, 1-(3,5-Difluoropyridin-2-yl)-4-oxo-7-(2-oxoimidazolidin-1-yl)-N-[1,1,1,2,2-pentafluoropentan-3-yl]-1,4-dihydro-1,8-naphthyridine-3-carboxamide]
- EC50 (human M2 receptor [1]): 13 nM
- Emax (human M2 receptor [1]): 84%
- Cooperativity (alpha factor) (human M2 receptor [2]): 30

Compound: O=C(NC(c1ccccc1Cl)C(F)(F)F)c1cn(-c2ncc(F)cc2F)c2nc(N3C[C@@H](O)CC3=O)ccc2c1=O (mixture of isomers) [Example 4, N-[1-(2-Chlorophenyl)-2,2,2-trifluoroethyl]-1-(3,5-difluoropyridin-2-yl)-7-[(4S)-4-hydroxy-2-oxopyrrolidin-1-yl]-4-oxo-1,4-dihydro-1,8-naphthyridine-3-carboxamide]
- EC50 (human M2 receptor [1]): 14 nM
- Emax (human M2 receptor [1]): 98.2%
- Cooperativity (alpha factor) (human M2 receptor [2]): 63

Compound: CCC(COC(F)(F)F)NC(=O)c1cn(-c2ncc(F)cc2F)c2nc(N3C[C@@H](O)CC3=O)ccc2c1=O (mixture of isomers) [Example 17, 1-(3,5-Difluoropyridin-2-yl)-7-[(4S)-4-hydroxy-2-oxopyrrolidin-1-yl]-4-oxo-N-[1-(trifluoromethoxy)butan-2-yl]-1,4-dihydro-1,8-naphthyridine-3-carboxamide]
- EC50 (human M2 receptor [1]): 111 nM
- Emax (human M2 receptor [1]): 88%
- Cooperativity (alpha factor) (human M2 receptor [2]): 24

Compound: O=C(N[C@H](C1CC1)C(F)(F)F)c1cn(-c2ncc(F)cc2F)c2nc(N3C[C@@H](O)CC3=O)ccc2c1=O [Example 138, N-[(1R)-1-Cyclopropyl-2,2,2-trifluoroethyl]-1-(3,5-difluoropyridin-2-yl)-7-[(4S)-4-hydroxy-2-oxopyrrolidin-1-yl]-4-oxo-1,4-dihydro-1,8-naphthyridine-3-carboxamide]
- EC50 (human M2 receptor [1]): 70 nM
- Emax (human M2 receptor [1]): 98.5%
- Cooperativity (alpha factor) (human M2 receptor [2]): 61

Compound: CC[C@H](NC(=O)c1cn(-c2ncc(F)cc2F)c2nc(N3CC(C)CC3=O)ccc2c1=O)C(F)(F)F (stereo partly drawn) [Example 30, 1-(3,5-Difluoropyridin-2-yl)-7-[4-methyl-2-oxopyrrolidin-1-yl]-4-oxo-N-[(2S)-1,1,1-trifluorobutan-2-yl]-1,4-dihydro-1,8-naphthyridine-3-carboxamide]
- EC50 (human M2 receptor [1]): 64 nM
- Emax (human M2 receptor [1]): 99%
- Cooperativity (alpha factor) (human M2 receptor [2]): 14

Compound: O=C(Nc1c(Cl)cccc1Cl)c1cn(-c2ncc(F)cc2F)c2nc(N3C[C@@H](O)[C@H](O)C3)ccc2c1=O [Example 67, N-(2,6-Dichlorophenyl)-1-(3,5-difluoropyridin-2-yl)-7-[(3R,4R)-3,4-dihydroxypyrrolidin-1-yl]-4-oxo-1,4-dihydro-1,8-naphthyridine-3-carboxamide]
- EC50 (human M2 receptor [1]): 53 nM
- Emax (human M2 receptor [1]): 97%
- Cooperativity (alpha factor) (human M2 receptor [2]): 36

Compound: O=C(NC(c1ccccc1Cl)C(F)(F)F)c1cn(-c2ncc(F)cc2F)c2nc(N3C[C@@H](O)CC3=O)ccc2c1=O (single isomer, unassigned) [Example 5]
- EC50 (human M2 receptor [1]): 31 nM
- Efficiency (human M2 receptor [1]): 98.25%
- Cooperativity (alpha factor) (human M2 receptor [2]): 63

Compound: CCC(COC(F)(F)F)NC(=O)c1cn(-c2ncc(F)cc2F)c2nc(N3C[C@@H](O)CC3=O)ccc2c1=O (single isomer, unassigned) [Example 19]
- EC50 (human M2 receptor [1]): 86 nM
- Efficiency (human M2 receptor [1]): 91.50%
- Cooperativity (alpha factor) (human M2 receptor [2]): 38
